# Source: publication PMC11844072, “Novel 5,6-dichlorobenzimidazole derivatives as dual BRAFWT and BRAFV600E inhibitors: design, synthesis, anti-cancer activity and molecular dynamics simulations” (BMC Chemistry, 2025)
# Assays:
# Test in all cases: NCI 5-dose assay
# Format in all cases: cell-based
# HOP-92 = conditions: Homo sapiens; HOP-92, Non-small cell lung cancer
# Procedure: (§1) The synthesized dichlorobenzimidazoles 10a–p were assayed for their influence on divers cancer cell lines according to the method presented in the Additional file A.
# (§2) 5. Screening of cytotoxic activity against a panel of sixty human tumor cell lines
# (§3) The selected compounds by NCI were evaluated for their anticancer activity in a two-stage process. First, these compounds were screened against the full NCI 60 cell lines panel at a single high dose of 10 µM. Then, the output from the single dose screen is reported as a mean graph. […]
# (§4) at five different minimal concentrations.
# (§5) Assay protocol. The human tumor cell lines of the cancer screening panel are grown in RPMI 1640 medium containing 5% fetal bovine serum and 2 mM L-glutamine. For a typical screening experiment, cells are inoculated into 96 well microtiter plates in 100 µL at plating densities ranging from 5000 to 40,000 cells/well depending on the doubling time of individual cell lines. After cell inoculation, the microtiter plates are incubated at 37 °C, 5% CO 2, 95% air and 100% relative humidity for 24 h prior to addition of the experimental drugs.
# (§6) After 24 h, two plates of each cell line are fixed in situ with TCA, to represent a measurement of the cell population for each cell line at the time of drug addition (Tz). The experimental drugs are solubilized in dimethyl sulfoxide at 400-fold the desired final maximum test concentration and stored frozen prior to use. At the time of drug addition, an aliquot of frozen concentrate is thawed and diluted to twice the desired final maximum test concentration with complete medium containing 50 µg/mL gentamicin. Additional four, 10-fold or ½ log serial dilutions are made to provide a total of five drug concentrations plus control.
# (§7) Aliquots of […] of these different drug dilutions are added to the appropriate microtiter wells already containing […] of medium, resulting in the required final drug concentrations.
# (§8) Following drug addition, the plates are incubated for an additional 48 h at 37 °C, 5% CO 2, 95% air, and 100% relative humidity. For adherent cells, the assay is terminated by the addition of cold TCA.
# (§9) Cells are fixed in situ by the gentle addition of 50 µL of cold 50% (w/v) TCA (final concentration, 10% TCA) and incubated for 60 min at 4 °C. The supernatant is discarded, and the plates are washed five times with tap water and air dried. Sulforhodamine B (SRB) solution ([…]) at 0.4% (w/v) in 1% acetic acid is added to each well, and plates are incubated for 10 min at room temperature. After staining, unbound dye is removed by washing five times with 1% acetic acid and the plates are air dried. Bound stain is subsequently solubilized with 10 mM trizma base, and the absorbance is read on an automated plate reader at a wavelength of 515 nm. For suspension cells, the methodology is […]
# (§10) the same except that the assay is terminated by fixing settled cells at the bottom of the wells by gently adding 50 µl of 80% TCA (final concentration, 16% TCA). Using the seven absorbance measurements [time zero, (Tz), control growth, (C), and test growth in the presence of drug at the five concentration levels (Ti)], the percentage growth is calculated at each of the drug concentrations […]
# (§11) Percentage growth inhibition is calculated as: [(Ti Tz)/(C–Tz)] x 100 for concentrations for which Ti>/=Tz and [(Ti-Tz)/Tz] x 100 for concentrations for which Ti < Tz.
# (§12) Three dose response parameters are calculated for each experimental agent. Growth […]
# (§13) concentration resulting in a 50% reduction in the net protein increase (as measured by SRB staining) in control cells during the drug incubation. The drug concentration resulting in total growth inhibition (TGI) is calculated from Ti = Tz. […]
# (§14) reduction in the measured protein at the end of the drug treatment as compared to that at the beginning) indicating a net loss of cells following treatment is calculated from [(Ti–Tz)/Tz] x 100 =
# (§15) _50. Values are calculated for each of these three parameters if the level of activity is reached; […]
# MCF7 = conditions: Homo sapiens; MCF7, Breast cancer
# Procedure: as §1, §2, §3, §4, §5, §6, §7, §8, §9, §10, §11, §12, §13, §14, §15
# CAKI-1 = conditions: Homo sapiens; CAKI-1, Renal cancer
# Procedure: as §1, §2, §3, §4, §5, §6, §7, §8, §9, §10, §11, §12, §13, §14, §15
# OVCAR-8 = conditions: Homo sapiens; OVCAR-8, Ovarian cancer
# Procedure: as §1, §2, §3, §4, §5, §6, §7, §8, §9, §10, §11, §12, §13, §14, §15
# 786-0 = conditions: Homo sapiens; 786-0, Renal cancer
# Procedure: as §1, §2, §3, §4, §5, §6, §7, §8, §9, §10, §11, §12, §13, §14, §15
# NCI-H460 = conditions: Homo sapiens; NCI-H460, Non-small cell lung cancer
# Procedure: as §1, §2, §3, §4, §5, §6, §7, §8, §9, §10, §11, §12, §13, §14, §15
# NCI-H226 = conditions: Homo sapiens; NCI-H226, Non-small cell lung cancer
# Procedure: as §1, §2, §3, §4, §5, §6, §7, §8, §9, §10, §11, §12, §13, §14, §15
# MOLT-4 = conditions: Homo sapiens; MOLT-4, Leukemia
# Procedure: as §1, §2, §3, §4, §5, §6, §7, §8, §9, §10, §11, §12, §13, §14, §15
# SNB-19 = conditions: Homo sapiens; SNB-19, CNS cancer
# Procedure: as §1, §2, §3, §4, §5, §6, §7, §8, §9, §10, §11, §12, §13, §14, §15
# SF-268 = conditions: Homo sapiens; SF-268, CNS cancer
# Procedure: as §1, §2, §3, §4, §5, §6, §7, §8, §9, §10, §11, §12, §13, §14, §15
# EKVX = conditions: Homo sapiens, Non-small cell lung cancer
# Procedure: as §1, §2, §3, §4, §5, §6, §7, §8, §9, §10, §11, §12, §13, §14, §15
# SN12C = conditions: Homo sapiens, Renal cancer
# Procedure: as §1, §2, §3, §4, §5, §6, §7, §8, §9, §10, §11, §12, §13, §14, §15
# BT-549 = conditions: Homo sapiens; BT-549, Breast cancer
# Procedure: as §1, §2, §3, §4, §5, §6, §7, §8, §9, §10, §11, §12, §13, §14, §15
# HCC-2998 = conditions: Homo sapiens; HCC-2998, Colon cancer
# Procedure: as §1, §2, §3, §4, §5, §6, §7, §8, §9, §10, §11, §12, §13, §14, §15
# NCI-H522 = conditions: Homo sapiens; NCI-H522, Non-small cell lung cancer
# Procedure: as §1, §2, §3, §4, §5, §6, §7, §8, §9, §10, §11, §12, §13, §14, §15
# SK-MEL-2 = conditions: Homo sapiens; SK-MEL-2, Melanoma
# Procedure: as §1, §2, §3, §4, §5, §6, §7, §8, §9, §10, §11, §12, §13, §14, §15
# SF-295 = conditions: Homo sapiens; SF-295, CNS cancer
# Procedure: as §1, §2, §3, §4, §5, §6, §7, §8, §9, §10, §11, §12, §13, §14, §15
# OVCAR-4 = conditions: Homo sapiens; OVCAR-4, Ovarian cancer
# Procedure: as §1, §2, §3, §4, §5, §6, §7, §8, §9, §10, §11, §12, §13, §14, §15
# SF-539 = conditions: Homo sapiens; SF-539, CNS cancer
# Procedure: as §1, §2, §3, §4, §5, §6, §7, §8, §9, §10, §11, §12, §13, §14, §15
Compound,GI50 (HOP-92) [µM],GI50 (MCF7) [µM],GI50 (CAKI-1) [µM],GI50 (OVCAR-8) [µM],GI50 (786-0) [µM],GI50 (NCI-H460) [µM],GI50 (NCI-H226) [µM],GI50 (MOLT-4) [µM],GI50 (SNB-19) [µM],GI50 (SF-268) [µM],GI50 (EKVX) [µM],GI50 (SN12C) [µM],GI50 (BT-549) [µM],GI50 (HCC-2998) [µM],GI50 (NCI-H522) [µM],GI50 (SK-MEL-2) [µM],GI50 (SF-295) [µM],GI50 (OVCAR-4) [µM],GI50 (SF-539) [µM]
"COC(=O)COc1ccc(C=NNC(=O)Cn2c(-c3ccc(OC)cc3)nc3cc(Cl)c(Cl)cc32)cc1 [Compound 10h, Methyl-2-(4-((2-(2-(5,6-dichloro-2-(4-methoxyphenyl)-1H-benzo[d]imidazol-1-yl)acetyl)hydrazono)methyl)phenoxy)acetate]",11.4,4.25,5.74,2.93,3.01,> 82.5,> 82.5,5.36,> 82.5,10.1,18.8,2.95,25.6,13.1,14.7,10.5,> 82.5,17.2,10.7
"COC(=O)COc1cc(C=NNC(=O)Cn2c(-c3ccc(OC)cc3)nc3cc(Cl)c(Cl)cc32)ccc1OC [Compound 10o, Methyl-2-(5-((2-(2-(5,6-dichloro-2-(4-methoxyphenyl)-1H-benzo[d]imidazol-1-yl)acetyl)hydrazono)methyl)-2-methoxyphenoxy)acetate]",23.6,100,15.3,8.68,17.9,> 100,> 100,14.2,> 100,> 100,89.2,7.92,> 100,13.4,> 100,21.6,> 100,20.5,5.28
"COC(=O)COc1ccc(C=NNC(=O)Cn2c(-c3ccc(OC)cc3)nc3cc(Cl)c(Cl)cc32)cc1OC [Compound 10p, Methyl-2-(4-((2-(2-(5,6-dichloro-2-(4-methoxyphenyl)-1H-benzo[d]imidazol-1-yl)acetyl)hydrazono)methyl)-2-methoxyphenoxy)acetate]",12.5,> 72.5,2.77,2.54,2.21,26.1,> 72.5,> 72.5,> 72.5,32.4,18.9,2.2,> 72.5,11.7,> 72.5,10,> 72.5,23,7.52
